# Data as given in paper PMC12615753, “Glutathione as a taste modulator: molecular mechanisms of interaction with umami and sweet taste receptors” (Food Chemistry: Molecular Sciences, 2025).
# Target: T1, hTAS1R1 A302W/rTAS1R3 (UniProt Q7RTX1+Q923K1, A302W)
# T1 construct: UniProtKB number Q7RTX1–1); The cDNA coding region of rTAS1R3 was synthesized with optimized-codon usage for human expression; expressed in transfected cells; host or cells: HEK293T/17
# T1 sequence (Q7RTX1 21-841 A302W): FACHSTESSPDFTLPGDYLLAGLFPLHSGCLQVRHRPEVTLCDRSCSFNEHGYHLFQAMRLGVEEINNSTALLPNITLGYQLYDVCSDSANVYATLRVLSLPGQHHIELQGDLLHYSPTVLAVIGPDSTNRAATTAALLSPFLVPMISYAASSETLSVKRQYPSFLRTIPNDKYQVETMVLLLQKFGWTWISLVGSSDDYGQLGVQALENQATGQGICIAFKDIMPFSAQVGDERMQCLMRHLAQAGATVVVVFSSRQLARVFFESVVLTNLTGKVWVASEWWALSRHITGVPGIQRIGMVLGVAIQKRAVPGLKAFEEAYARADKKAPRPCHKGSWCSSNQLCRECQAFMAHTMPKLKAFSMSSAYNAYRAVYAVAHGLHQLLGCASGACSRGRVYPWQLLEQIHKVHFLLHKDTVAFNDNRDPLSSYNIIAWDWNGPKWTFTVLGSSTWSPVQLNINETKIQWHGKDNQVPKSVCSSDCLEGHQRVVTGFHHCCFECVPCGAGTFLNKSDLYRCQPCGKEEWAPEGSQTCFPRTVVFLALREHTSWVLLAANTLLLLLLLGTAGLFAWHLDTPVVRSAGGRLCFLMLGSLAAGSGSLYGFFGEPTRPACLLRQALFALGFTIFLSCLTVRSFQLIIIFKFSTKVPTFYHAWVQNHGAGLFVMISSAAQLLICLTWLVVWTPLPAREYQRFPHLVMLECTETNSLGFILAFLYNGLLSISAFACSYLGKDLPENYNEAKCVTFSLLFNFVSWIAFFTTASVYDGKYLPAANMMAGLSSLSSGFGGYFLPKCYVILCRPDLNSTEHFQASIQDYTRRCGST
# T1 sequence (Q923K1 21-858): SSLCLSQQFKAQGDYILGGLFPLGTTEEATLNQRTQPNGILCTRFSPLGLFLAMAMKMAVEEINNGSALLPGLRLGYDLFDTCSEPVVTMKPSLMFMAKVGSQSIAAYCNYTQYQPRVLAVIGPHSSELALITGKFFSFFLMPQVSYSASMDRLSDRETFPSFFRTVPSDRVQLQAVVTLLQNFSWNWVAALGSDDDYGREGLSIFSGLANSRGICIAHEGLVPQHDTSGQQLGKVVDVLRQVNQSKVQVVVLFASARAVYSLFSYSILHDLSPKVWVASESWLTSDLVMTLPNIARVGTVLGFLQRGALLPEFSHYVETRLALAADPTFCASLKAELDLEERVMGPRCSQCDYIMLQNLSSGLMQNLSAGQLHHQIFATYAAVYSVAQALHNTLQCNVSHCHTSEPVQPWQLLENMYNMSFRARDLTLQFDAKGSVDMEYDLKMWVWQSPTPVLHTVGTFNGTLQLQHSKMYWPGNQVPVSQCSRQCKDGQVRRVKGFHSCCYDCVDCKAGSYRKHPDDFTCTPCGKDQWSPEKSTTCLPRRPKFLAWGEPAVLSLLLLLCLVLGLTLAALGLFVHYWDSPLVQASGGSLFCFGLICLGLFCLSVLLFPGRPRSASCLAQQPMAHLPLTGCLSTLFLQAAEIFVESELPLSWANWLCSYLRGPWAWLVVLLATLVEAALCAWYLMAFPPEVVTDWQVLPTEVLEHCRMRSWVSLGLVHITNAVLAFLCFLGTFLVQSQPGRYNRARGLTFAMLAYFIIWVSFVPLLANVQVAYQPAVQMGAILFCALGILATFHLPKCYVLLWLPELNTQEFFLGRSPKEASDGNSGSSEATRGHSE
# Experiment: Calcium assay, hTAS1R1 mutant co-expressed with rTAS1R3
# Type: cell-based, human, rat
# Description: Chimeric Gα proteins, such as Gα16Gust44, Gα16Gi3 or Gα15i2, are widely used in the functional expression of TAS1R receptors ([Backes et al., 2015]; [Suess et al., 2015]; [Toda et al., 2021], [Toda et al., 2013], [Toda et al., 2018]; [Zhang et al., 2008]). Chimeric Gα15i2 (([Toda et al., 2013]), Supplementary data) was generated by replacing the last five residues of the C-terminal tail of rat Gα15i2 (EINLL) (UniProt number G3V6N8; https://www.uniprot.org/uniprot/) with the counterpart sequence from human GNAI2 (DCGLF) (UniProt number P04899-1) and cloning into the pcDNA3.1/Hygro vector (Invitrogen, Thermo Fisher Scientific, Illkirch, France) between the HindIII and NotI restriction sites, resulting in the plasmid pcDNA3.1-Gα15i2. Chimeric Gα16Gust44 construct have already been reported ([Raliou et al., 2011]). Briefly, Gα16Gust44 was generated by replacing the C-terminal of Gα16 with the C-terminal 44 residues of gustducin. As previously described, hTAS1R1 was amplified from human fungiform papillae cDNA and cloned and inserted into pcDNA3 (Invitrogen), generating pcDNA3-TAS1R1-WT (wild-type) ([Raliou et al., 2011]). […] The cDNA coding region of rTAS1R3 was synthesized with optimized-codon usage for human expression (Genewiz) and was cloned and inserted into the mammalian pcDNA4/myc-HisA (Invitrogen) expression vector between the EcoRI and NotI restriction sites, resulting in the plasmid pcDNA4-rTAS1R3. […] The sequence integrity of all the plasmid constructs was verified via automated DNA sequencing (Genewiz).
# The hTAS1R1 mutants were co-expressed with the rTAS1R3 subunit in HEK293 cells. […] As a control, the functionality of the mutated receptors was checked after stimulation with S807 (Fig. S8), which interacts with TAS1R1-TMD ([Zhang et al., 2008]).
smiles,measurement,setting,value
"N[C@@H](CCC(=O)O)C(=O)O [L-Glu, L-glutamic acid, reference compound]","response to the agonist alone, vs WT",A302W,completely suppressed
"N[C@@H](CCC(=O)N[C@@H](CS)C(=O)NCC(=O)O)C(=O)O [GSH, γ-L-glutamyl-L-cysteinyl-glycine]",EC50,,5.32 ± 2.54 mM
same,Max ∆F/F0,"A302W, GSH",0.09 ± 0.01
same,R1 = mutant EC50/WT EC50,"A302W, GSH",2.1
"CCCC(CCC)NC(=O)c1ccc2c(c1)OCO2 [S807, N-(heptan-4-yl)benzo[d][1,3]dioxole-5-carboxamide, reference compound]","response to the agonist alone, vs WT",A302W,strongly affected
